Target: T1, human Farnesoid X Receptor (FXR) ligand binding domain (GST-FXR LBD) (Homo sapiens, UniProt Q96RI1)
T1 construct: purchased Invitrogen
T1 sequence (Q96RI1 193-472 isoform Q96RI1-2): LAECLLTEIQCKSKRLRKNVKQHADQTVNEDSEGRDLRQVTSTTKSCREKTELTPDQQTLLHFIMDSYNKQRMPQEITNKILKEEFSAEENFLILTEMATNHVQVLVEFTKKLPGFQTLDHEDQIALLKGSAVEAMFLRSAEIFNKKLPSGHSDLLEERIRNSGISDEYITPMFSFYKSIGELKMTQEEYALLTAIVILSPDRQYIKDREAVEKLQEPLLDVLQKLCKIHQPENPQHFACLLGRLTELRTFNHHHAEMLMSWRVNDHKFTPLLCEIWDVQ
Assay: Human GST-FXR LBD co-activator interaction assay (FXR HTRF assay)
Type: biochemical
Conditions: GST-FXR LBD interaction with biotin-labeled SRC-1 peptide, FRET, response relative to GW4064, read-out: FXR coactivator interaction assay (HTRF)
Description: Human GST-FXR LBD Co-Activator Interaction Assay
The FXR HTRF assay is a biochemical assay measuring the interaction between FXR and a coactivator protein (SRC1). The ligand-induced interaction with a coactivator protein is a critical step in transcriptional activation by FXR. Thus, this is an assay designed to measure FXR agonist activity of the test compounds.
Recombinant human Farnesoid X Receptor (FXR) ligand binding domain (amino acids 193-472) fused to glutathione S-transferase (GST) purified protein (GST-FXR LBD) was purchased (Invitrogen). The ligand-dependent interaction between GST-FXR LBD and a peptide derived from Steroid Receptor Coactivator-1 (SRC-1) was monitored by Fluorescence Resonance Energy Transfer (FRET). […] Test compounds (in DMSO solution) and detection reagents (anti-GST-Cryptate labeled antibody and Streptavidin-XL665 conjugate; CisBio) were added in assay buffer containing 50 mM KF. Plates are incubated at room temperature in the dark for 2.5 hrs before reading on an Envision (PerkinElmer) at 665 nm and 590 nm. The HTRF assay results were calculated from the 665 nm/590 nm ratio (ratio=(A665 nm/A590 nm)×10^4) and expressed in Delta F %=(Ratiosample−Rationegative)/Rationegative×100.
A negative control (without Streptavidin-XL665) was run with each assay and represented the background fluorescence. A reference FXR agonist, (E)-3-(2-chloro-4-((3-(2,6-dichlorophenyl)-5-isopropylisoxazol-4-yl)methoxy)styryl)benzoic acid (Compound GW4064), was included in each experiment as positive control. The efficacy of each test compound was compared to that of GW4064. At each concentration, the relative activity of the test compound was expressed as Response %=(Rsample−RDMSO)/(Rpositive−RDMSO), where Rsample is the HTRF response (expressed in Delta F %) for the test compound, Rpositive is the maximal response for GW4064 at saturating concentrations, and RDMSO is the response for DMSO control. The EC50 values were calculated using GraphPad Prism (GraphPad Software) using non-linear regression curve fit (log(agonist) vs. response-variable slope (four parameters)).

| EC50 [nM] | Structure (SMILES) |
| --- | --- |
| 6.5 | Cn1nc(C(=O)N(Cc2ccccc2)Cc2ccc(C(=O)O)c(F)c2)c2c1-c1cc(Cl)ccc1OC2 [Compound 91, 4-((N-benzyl-8-chloro-1-methyl-1,4-dihydrochromeno[4,3-c]pyrazole-3-carboxamido)methyl)-2-fluorobenzoic acid] |
| 74 | Cn1nc(C(=O)N(CCOc2ccc(C(=O)O)cc2F)Cc2ccccc2F)c2c1-c1cc(F)c(F)cc1OC2 [Compound 62, 4-(2-(7,8-difluoro-N-(2-fluorobenzyl)-1-methyl-1,4-dihydrochromeno[4,3-c]pyrazole-3-carboxamido)ethoxy)-3-fluorobenzoic acid] |
| 1.7 | Cn1nc(C(=O)N(CC(=O)Nc2cccc(C(=O)O)c2)Cc2ccccc2F)c2c1-c1cc(F)c(F)cc1OC2 [Compound 10] |
| 0.51 | Cc1cccc(CN(CC(=O)Nc2cc(C(=O)O)ccc2F)C(=O)c2nn(C)c3c2COc2ccc(Cl)cc2-3)c1 [Compound 3, 3-(2-(8-chloro-1-methyl-N-(3-methylbenzyl)-1,4-dihydrochromeno[4,3-c]pyrazole-3-carboxamido)acetamido)-4-fluorobenzoic acid] |
| 32 | Cn1nc(C(=O)N(Cc2ccccc2F)Cc2ccc(C(=O)O)cc2F)c2c1-c1cc(F)ccc1OC2 [Compound 94, 3-fluoro-4-((8-fluoro-N-(2-fluorobenzyl)-1-methyl-1,4-dihydrochromeno[4,3-c]pyrazole-3-carboxamido)methyl)benzoic acid] |
| 28 | Cn1nc(C(=O)N(CCOc2ccc(C(=O)O)cc2F)Cc2cccc(F)c2)c2c1-c1cc(F)c(F)cc1OC2 [Compound 59, 4-(2-(7,8-difluoro-N-(3-fluorobenzyl)-1-methyl-1,4-dihydrochromeno[4,3-c]pyrazole-3-carboxamido)ethoxy)-3-fluorobenzoic acid] |
| 24 | Cn1nc(C(=O)N(CC(=O)Nc2cccc(C(=O)O)c2)CC2CCCC2)c2c1-c1cc(Cl)ccc1OC2 [Compound 37, 3-(2-(8-chloro-N-(cyclopentylmethyl)-1-methyl-1,4-dihydrochromeno[4,3-c]pyrazole-3-carboxamido)acetamido)benzoic Acid] |
| 0.7 | Cn1nc(C(=O)N(CC(=O)Nc2cccc(C(=O)O)c2)Cc2ccccc2F)c2c1-c1cc(Cl)c(F)cc1OC2 [Compound 25, 3-(2-(8-chloro-7-fluoro-N-(2-fluorobenzyl)-1-methyl-1,4-dihydrochromeno[4,3-c]pyrazole-3-carboxamido)acetamido)benzoic acid] |
| 0.47 | Cn1nc(C(=O)N(CC(=O)Nc2cccc(C(=O)O)c2)Cc2ccccc2)c2c1-c1cc(Cl)ccc1OC2 [Compound 31, 3-(2-(N-benzyl-8-chloro-1-methyl-1,4-dihydrochromeno[4,3-c]pyrazole-3-carboxamido)acetamido)benzoic acid] |
| 3.3 | Cn1nc(C(=O)N(CC(=O)Nc2cccc(C(=O)O)c2)Cc2ccccc2F)c2c1-c1ccc(F)cc1OC2 [Compound 8, 3-(2-(7-fluoro-N-(2-fluorobenzyl)-1-methyl-1,4-dihydrochromeno[4,3-c]pyrazole-3-carboxamido)acetamido)benzoic acid] |
| 1.5 | Cn1nc(C(=O)N(CC(=O)Nc2cc(C(=O)O)ccc2F)Cc2ccccc2)c2c1-c1ccccc1OC2 [Compound 33, 3-(2-(N-benzyl-1-methyl-1,4-dihydrochromeno[4,3-c]pyrazole-3-carboxamido)acetamido)-4-fluorobenzoic acid] |
| 61 | Cn1nc(C(=O)N(CCOc2cc(C(=O)O)ccc2F)Cc2ccccc2F)c2c1-c1cc(Cl)ccc1OC2 [Compound 48, 3-(2-(8-chloro-N-(2-fluorobenzyl)-1-methyl-1,4-dihydrochromeno[4,3-c]pyrazole-3-carboxamido)ethoxy)-4-fluorobenzoic acid] |
| 22 | Cn1nc(C(=O)N(CCOc2ccc(C(=O)O)cc2F)Cc2cccc(F)c2)c2c1-c1cc(F)ccc1OC2 [Compound 58, 3-fluoro-4-(2-(8-fluoro-N-(3-fluorobenzyl)-1-methyl-1,4-dihydrochromeno[4,3-c]pyrazole-3-carboxamido)ethoxy)benzoic acid] |
| 0.8 | Cc1cc2c(cc1Cl)-c1c(c(C(=O)N(CC(=O)Nc3cccc(C(=O)O)c3)Cc3ccccc3F)nn1C)CO2 [Compound 13, 3-(2-(8-chloro-N-(2-fluorobenzyl)-1,7-dimethyl-1,4-dihydrochromeno[4,3-c]pyrazole-3-carboxamido)acetamido)benzoic acid] |
| 1 | Cn1nc(C(=O)N(CC(=O)Nc2cc(C(=O)O)ccc2F)Cc2ccccc2F)c2c1-c1cc(F)c(F)cc1OC2 [Compound 17, 3-(2-(7,8-difluoro-N-(2-fluorobenzyl)-1-methyl-1,4-dihydrochromeno[4,3-c]pyrazole-3-carboxamido)acetamido)-4-fluorobenzoic acid] |
| 3.2 | Cc1cc(C(=O)O)ccc1OCCN(Cc1ccccc1F)C(=O)c1nn(C)c2c1COc1ccc(Cl)cc1-2 [Compound 46] |
| 20 | Cn1nc(C(=O)N(CCNc2cc(C(=O)O)ccc2F)Cc2cccc(F)c2)c2c1-c1cc(F)c(F)cc1OC2 [Compound 73, 3-((2-(7,8-difluoro-N-(3-fluorobenzyl)-1-methyl-1,4-dihydrochromeno[4,3-c]pyrazole-3-carboxamido)ethyl)amino)-4-fluorobenzoic acid] |
| 3.3 | Cn1nc(C(=O)N(CC(=O)Nc2cccc(C(=O)O)c2)Cc2ccccc2F)c2c1-c1cc(F)cc(F)c1OC2 [Compound 11, 3-(2-(6,8-difluoro-N-(2-fluorobenzyl)-1-methyl-1,4-dihydrochromeno[4,3-c]pyrazole-3-carboxamido)acetamido)benzoic acid] |
| 2.6 | Cn1nc(C(=O)N(CCNc2cc(C(=O)O)ccc2F)Cc2ccccc2)c2c1-c1cc(Cl)ccc1OC2 [Compound 72, 3-((2-(N-benzyl-8-chloro-1-methyl-1,4-dihydrochromeno[4,3-c]pyrazole-3-carboxamido)ethyl)amino)-4-fluorobenzoic acid] |
| 0.53 | Cc1cc(C(=O)O)cc(C)c1OCCN(Cc1ccccc1F)C(=O)c1nn(C)c2c1COc1ccc(Cl)cc1-2 [Compound 47, 4-(2-(8-chloro-N-(2-fluorobenzyl)-1-methyl-1,4-dihydrochromeno[4,3-c]pyrazole-3-carboxamido)ethoxy)-3,5-dimethylbenzoic acid] |
| 17 | Cn1nc(C(=O)N(Cc2ccc(C(=O)O)c(F)c2)Cc2ccccc2F)c2c1-c1cc(Cl)ccc1OC2 [Compound 97, 4-((8-chloro-N-(2-fluorobenzyl)-1-methyl-1,4-dihydrochromeno[4,3-c]pyrazole-3-carboxamido)methyl)-2-fluorobenzoic acid] |
| 0.38 | Cn1nc(C(=O)N(CC(=O)Nc2cc(C(=O)O)ccc2F)Cc2cccc(F)c2)c2c1-c1cc(Cl)ccc1OC2 [Compound 28, 3-(2-(8-chloro-N-(3-fluorobenzyl)-1-methyl-1,4-dihydrochromeno[4,3-c]pyrazole-3-carboxamido)acetamido)-4-fluorobenzoic acid] |
| 0.77 | Cn1nc(C(=O)N(CC(=O)Nc2cccc(C(=O)O)c2)Cc2ccccc2F)c2c1-c1cc(Cl)ccc1OC2 [Compound 35, 3-(2-(8-chloro-N-(2-fluorobenzyl)-1-methyl-1,4-dihydrochromeno[4,3-c]pyrazole-3-carboxamido)acetamido)benzoic Acid] |

Source: US11021446B2 (NOVARTIS AG, priority 2013, dated 2021)
